Assays:
Test in all cases: relative viability (nuclei count vs DMSO), 5 days (fraction); higher = more cells survive
[1] = compound: CC1=C(CC(=O)O)c2cc(F)ccc2/C1=C\c1ccc([S+](C)[O-])cc1 [Sulindac] + CC(=O)Nc1cccc(-n2c(=O)n(C3CC3)c(=O)c3c(Nc4ccc(I)cc4F)n(C)c(=O)c(C)c32)c1 [Trametinib] (partner 0.02 µM)
Summary of the method: (§1)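 Lung cancer cell lines were seeded in 1536-well plates and dosed by pin tool the next day, with either a single drug or a fixed anchor-drug dose combined with five library-drug doses (not always all listed) spaced in √10 steps. Five days later, one step fixed the cells and stained their nuclei (final 0.05% Triton X-100, 1% formaldehyde, 1 ug/ml Hoechst), and nuclei were counted on 4× images. Relative viability is the nuclei count in treated wells divided by the count in vehicle wells, and each value is the median of duplicate plates.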

[2] = compound: CN[C@@H]1C[C@H]2O[C@@](C)([C@@H]1OC)n1c3ccccc3c3c4c(c5c6ccccc6n2c5c31)C(=O)NC4 [Staurosporine] + CS(=O)(=O)N1CCN(Cc2cc3nc(-c4cccc5[nH]ncc45)nc(N4CCOCC4)c3s2)CC1 [Pictilisib] (partner 1 µM)
Summary of the method: as §1

[3] = compound: CC1=C(CC(=O)O)c2cc(F)ccc2/C1=C\c1ccc([S+](C)[O-])cc1 [Sulindac] + C[C@@H](Oc1cc(-c2cnn(C3CCNCC3)c2)cnc1N)c1c(Cl)ccc(F)c1Cl [Crizotinib] (partner 1 µM)
Summary of the method: as §1

[4] = compound: CN[C@@H]1C[C@H]2O[C@@](C)([C@@H]1OC)n1c3ccccc3c3c4c(c5c6ccccc6n2c5c31)C(=O)NC4 [Staurosporine] + O=C(c1cc(Cc2n[nH]c(=O)c3ccccc23)ccc1F)N1CCN(C(=O)C2CC2)CC1 [Olaparib] (partner 8 µM)
Summary of the method: as §1

NCI-H1651 was tested, and the relative viability ([1]; first compound 0.08 µM) was 0.797, the relative viability ([1]; first compound 0.253 µM) was 0.844 and the relative viability ([1]; first compound 0.8 µM) was 0.733. It also gave a relative viability ([1]; first compound 2.53 µM) of 0.801, a relative viability ([1]; first compound 8 µM) of 0.845 and a relative viability ([2]; first compound 0.005 µM) of 0.438. It also gave a relative viability ([2]; first compound 0.01581 µM) of 0.334, a relative viability ([2]; first compound 0.05 µM) of 0.239 and a relative viability ([2]; first compound 0.1581 µM) of 0.097. For the same cell line, the relative viability ([2]; first compound 0.5 µM) was 0.089, the relative viability ([3]; first compound 0.08 µM) was 0.969 and the relative viability ([3]; first compound 0.253 µM) was 0.86. It also gave a relative viability ([3]; first compound 2.53 µM) of 0.93, a relative viability ([3]; first compound 8 µM) of 0.929 and a relative viability ([4]; first compound 0.005 µM) of 0.153. The relative viability ([4]; first compound 0.01581 µM) was 0.159, the relative viability ([4]; first compound 0.05 µM) was 0.168 and the relative viability ([4]; first compound 0.1581 µM) was 0.15. The relative viability ([4]; first compound 0.5 µM) was 0.126.
In the case of HCC-15, the relative viability ([1]; first compound 0.08 µM) is reported as 0.415, the relative viability ([1]; first compound 0.253 µM) is reported as 0.395 and the relative viability ([1]; first compound 0.8 µM) is reported as 0.375. For the same cell line, the relative viability ([1]; first compound 2.53 µM) was 0.347, the relative viability ([1]; first compound 8 µM) was 0.283 and the relative viability ([2]; first compound 0.005 µM) was 0.718. It also gave a relative viability ([2]; first compound 0.05 µM) of 0.566, a relative viability ([2]; first compound 0.1581 µM) of 0.216 and a relative viability ([2]; first compound 0.5 µM) of 0.113. The relative viability ([3]; first compound 0.08 µM) was 0.952, the relative viability ([3]; first compound 0.253 µM) was 0.934 and the relative viability ([3]; first compound 0.8 µM) was 0.647. It also gave a relative viability ([3]; first compound 2.53 µM) of 0.834, a relative viability ([3]; first compound 8 µM) of 0.883 and a relative viability ([4]; first compound 0.005 µM) of 0.613. The relative viability ([4]; first compound 0.05 µM) was 0.532, the relative viability ([4]; first compound 0.1581 µM) was 0.286 and the relative viability ([4]; first compound 0.5 µM) was 0.205.
Cell Line LCLC-103H has a relative viability ([1]; first compound 0.08 µM) of 0.715, a relative viability ([1]; first compound 0.253 µM) of 0.722 and a relative viability ([1]; first compound 0.8 µM) of 0.692. It also gave a relative viability ([1]; first compound 2.53 µM) of 0.67, a relative viability ([1]; first compound 8 µM) of 0.694 and a relative viability ([2]; first compound 0.005 µM) of 0.495. The relative viability ([2]; first compound 0.01581 µM) was 0.211, the relative viability ([2]; first compound 0.05 µM) was 0.274 and the relative viability ([2]; first compound 0.1581 µM) was 0.193. The relative viability ([2]; first compound 0.5 µM) was 0.158, the relative viability ([3]; first compound 0.08 µM) was 1.09 and the relative viability ([3]; first compound 0.253 µM) was 1.11. The relative viability ([3]; first compound 0.8 µM) was 0.952, the relative viability ([3]; first compound 2.53 µM) was 1.11 and the relative viability ([3]; first compound 8 µM) was 1.09. For the same cell line, the relative viability ([4]; first compound 0.005 µM) was 0.851, the relative viability ([4]; first compound 0.01581 µM) was 0.477 and the relative viability ([4]; first compound 0.05 µM) was 0.403. For the same cell line, the relative viability ([4]; first compound 0.1581 µM) was 0.247.
In the case of NCI-H2347, the relative viability ([1]; first compound 0.08 µM) is reported as 0.279, the relative viability ([1]; first compound 0.253 µM) is reported as 0.272 and the relative viability ([1]; first compound 0.8 µM) is reported as 0.297. It also gave a relative viability ([1]; first compound 2.53 µM) of 0.258, a relative viability ([1]; first compound 8 µM) of 0.271 and a relative viability ([2]; first compound 0.005 µM) of 0.836. For the same cell line, the relative viability ([2]; first compound 0.01581 µM) was 0.217, the relative viability ([2]; first compound 0.05 µM) was 0.487 and the relative viability ([2]; first compound 0.1581 µM) was 0.333. The relative viability ([2]; first compound 0.5 µM) was 0.357, the relative viability ([3]; first compound 0.08 µM) was 0.77 and the relative viability ([3]; first compound 0.253 µM) was 0.688. The relative viability ([3]; first compound 0.8 µM) was 0.684, the relative viability ([3]; first compound 2.53 µM) was 0.812 and the relative viability ([3]; first compound 8 µM) was 0.819. The relative viability ([4]; first compound 0.005 µM) was 0.481, the relative viability ([4]; first compound 0.01581 µM) was 0.319 and the relative viability ([4]; first compound 0.05 µM) was 0.39. It also gave a relative viability ([4]; first compound 0.1581 µM) of 0.371 and a relative viability ([4]; first compound 0.5 µM) of 0.292.
Cell Line NCI-H1915 has a relative viability ([1]; first compound 0.08 µM) of 0.303, a relative viability ([1]; first compound 0.253 µM) of 0.307 and a relative viability ([1]; first compound 0.8 µM) of 0.246. For the same cell line, the relative viability ([1]; first compound 2.53 µM) was 0.302, the relative viability ([1]; first compound 8 µM) was 0.303 and the relative viability ([2]; first compound 0.005 µM) was 0.719. It also gave a relative viability ([2]; first compound 0.05 µM) of 0.35, a relative viability ([2]; first compound 0.5 µM) of 0.0773 and a relative viability ([3]; first compound 0.08 µM) of 1.25. The relative viability ([3]; first compound 0.253 µM) was 1.02, the relative viability ([3]; first compound 0.8 µM) was 0.676 and the relative viability ([3]; first compound 2.53 µM) was 0.903. It also gave a relative viability ([3]; first compound 8 µM) of 0.947, a relative viability ([4]; first compound 0.005 µM) of 0.214 and a relative viability ([4]; first compound 0.01581 µM) of 0.124. For the same cell line, the relative viability ([4]; first compound 0.05 µM) was 0.159, the relative viability ([4]; first compound 0.1581 µM) was 0.0952 and the relative viability ([4]; first compound 0.5 µM) was 0.0708.
For NCI-H650, the relative viability ([1]; first compound 0.08 µM) was 1.03, the relative viability ([1]; first compound 0.253 µM) was 1.03 and the relative viability ([1]; first compound 0.8 µM) was 0.955. It also gave a relative viability ([1]; first compound 2.53 µM) of 1, a relative viability ([1]; first compound 8 µM) of 1.07 and a relative viability ([2]; first compound 0.005 µM) of 0.416. For the same cell line, the relative viability ([2]; first compound 0.01581 µM) was 0.297, the relative viability ([2]; first compound 0.05 µM) was 0.344 and the relative viability ([2]; first compound 0.1581 µM) was 0.24. The relative viability ([2]; first compound 0.5 µM) was 0.233, the relative viability ([3]; first compound 0.08 µM) was 0.788 and the relative viability ([3]; first compound 0.253 µM) was 0.73. For the same cell line, the relative viability ([3]; first compound 0.8 µM) was 0.793, the relative viability ([3]; first compound 2.53 µM) was 0.637 and the relative viability ([3]; first compound 8 µM) was 0.914. It also gave a relative viability ([4]; first compound 0.005 µM) of 0.313, a relative viability ([4]; first compound 0.01581 µM) of 0.246 and a relative viability ([4]; first compound 0.05 µM) of 0.25. It also gave a relative viability ([4]; first compound 0.1581 µM) of 0.229 and a relative viability ([4]; first compound 0.5 µM) of 0.124.
NCI-H596 gave a relative viability ([1]; first compound 0.08 µM) of 0.892, a relative viability ([1]; first compound 0.253 µM) of 0.827 and a relative viability ([1]; first compound 2.53 µM) of 0.981. For the same cell line, the relative viability ([1]; first compound 8 µM) was 0.875, the relative viability ([2]; first compound 0.005 µM) was 0.407 and the relative viability ([2]; first compound 0.01581 µM) was 0.222. It also gave a relative viability ([2]; first compound 0.05 µM) of 0.198, a relative viability ([2]; first compound 0.1581 µM) of 0.129 and a relative viability ([2]; first compound 0.5 µM) of 0.105. It also gave a relative viability ([3]; first compound 0.08 µM) of 0.896, a relative viability ([3]; first compound 0.253 µM) of 1.05 and a relative viability ([3]; first compound 0.8 µM) of 0.913. For the same cell line, the relative viability ([3]; first compound 2.53 µM) was 0.991, the relative viability ([3]; first compound 8 µM) was 1.04 and the relative viability ([4]; first compound 0.005 µM) was 0.854. It also gave a relative viability ([4]; first compound 0.01581 µM) of 0.542, a relative viability ([4]; first compound 0.05 µM) of 0.302 and a relative viability ([4]; first compound 0.1581 µM) of 0.25. It also gave a relative viability ([4]; first compound 0.5 µM) of 0.297.

Reference: the supplement of paper PMC10307832
